Where no end group is shown, it is not given here.
Experiments:
[1] = Residence time of EB dye in brain following transportation by the peptide; format: in vivo, mice; details: EB 10 min after 300 μg K16ApoE
Method: A series of mice were administered 300 μg of K16ApoE followed by administration of ˜40 μL 2% EB 10 min after administration of the peptide. As a control, only EB was injected, cardiac perfusion was done 6 hours after EB injection, followed by collection of brain. For all other mice, perfusion and collection of brains was performed 15 min, 30 min, 1 h, 2 h, 4 h, 6 h, 12, h, and 24 h following administration of EB.

[2] = Tissue distribution of Evans Blue (EB) after delivery via K16ApoE; format: in vivo, mice; details: tissues 1 h after EB
Method: Mice were injected with various amounts of K16ApoE peptide (0 μg, 150 μg, 100 μg, 75 μg, 50 μg, 25 and μg) first. EB (40 μL of a 2% solution was injected 10 min after injection of the peptide. Tissues (brains, lungs, heart, liver, spleen and kidney) were collected 1 h after EB delivery. All injections were through the femoral vein.

blood-brain barrier = assay: Transportation of Evan's Blue (EB) dye across the BBB after IV injection of peptide; format: in vivo, mouse; details: for EB dye in brain: EB 10 min later, brain collected 1 h after EB
Method: To explore whether K16ApoE (SEQ. ID. NO: 42) compromises integrity of the BBB, the peptide was first injected by IV followed by injection of Evan's Blue (EB; a routinely used small molecule blue dye with a molecular weight of 960.81) by IV into the femoral vein of a mouse. Cardiac perfusion was performed and the brains of the mice were removed and evaluated approximately 2 hours following injection of the dye. As controls, a peptide consisting of 16 lysine residues (K16) and a 20-amino acid peptide comprising the LDLR-binding domain of ApoE (ApoE-FITC; (SEQ ID NO:13)), were used. The particulars of each administration are as follows: • 1) 67.5 nanomoles of K16 injected first, then ˜40 μL 2% EB was injected. • 2) Same as 1 but K16 and EB mixed prior to injection. • 3) 67.5 nanomoles of ApoE-FITC injected first, then ˜40 μL 2% EB was injected. • 4) Same as 3 but ApoE-FITC peptide and EB was mixed prior to injection. • 5) 67.5 nanomoles of K16ApoE injected first, then ˜40 μL 2% EB was injected. • 6) Same as 5 but K16ApoE peptide and EB was mixed first before injection.
Using the method described in Example 1, various amounts of K16ApoE (SEQ. ID. NO: 42) was injected followed by administration of ˜40 μL 2% EB. The particulars of each administration are as follows: • 1) EB alone. • 2) 50 μg (11.25 nanomoles) K16ApoE first, followed by administration of EB. • 3) 100 μg (22.5 nanomoles) K16ApoE first, followed by administration of EB. • 4) 200 μg (45 nanomoles) K16ApoE first, followed by administration of EB. • 5) 300 μg (67.5 nanomoles) K16ApoE first, followed by administration of EB.
˜40 μL of 2% EB was injected 10 min after injection of various amounts of K16ApoE (75 μg, 100 μg, 150 μg, 250 μg, and 300 μg) or K26ApoE (25 μg, 50 μg, 75 μg, 100 μg, 125 μg, and 150 μg). K26ApoE (SEQ ID NO: 139) having the sequence:
Brain tissue as was collected 1 h following EB injection. All injections were at the femoral vein.

Compound: Cc1cc(-c2ccc(/N=N/c3ccc4c(S(=O)(=O)[O-])cc(S(=O)(=O)[O-])c(N)c4c3O)c(C)c2)ccc1/N=N/c1ccc2c(S(=O)(=O)[O-])cc(S(=O)(=O)[O-])c(N)c2c1O.[Na+].[Na+].[Na+].[Na+] [EB, Evan's Blue]
- time post EB administration from which dye is observed in brain [1]: 15 min
- time EB is retained well in the brain ([1]; dye remains intense): up to 4 h
- time EB is probably retained in the brain (less intense dye) ([1]; longest time point tested): up to 24 h
- EB stain in organs ([2]; EB injected without K16ApoE): Kidney, spleen, liver and heart show some EB-stain

Compound: KKKKKKKKKKKKKKKKKKKKKKKKKK- LRVRLASHLRKLRKRLLRDA (KKKKKKKKKKKKKKKKKKKKKKKKKKLRVRLASHLRKLRKRLLRDA) [K26ApoE]
- EB dye in brain (blood-brain barrier; 25 μg peptide): no dye was observed
- EB dye in brain (blood-brain barrier; 50 μg peptide): only a small amount of dye present
- EB dye in brain (blood-brain barrier; 75 μg peptide): Increasing EB is observed
- effectiveness in delivering EB to the brain relative to K16ApoE (blood-brain barrier; comparison of peptide amounts needed): approximately two-fold

Compound: KKKKKKKKKKKKKKKKLRVRLASHLRKLRKRLLRDA [K16ApoE, KKKKKKKKKKKKKKKKLRVRLASHLRKLRKRLLRDA]
- EB in brain ([2]; 0-150 μg K16ApoE, EB 10 min later): EB goes into brain only after injection of the peptide
- EB stain in organs ([2]; EB injected after K16ApoE injection): Kidney, spleen and liver are stained with EB

Reference: patent US20170007669A1, “PEPTIDE-MEDIATED DELIVERY OF ACTIVE AGENTS ACROSS THE BLOOD-BRAIN BARRIER” (Mayo Foundation for Medical Education and Research, priority 2015, published 2017)
